Target: recombinant, human, C-terminally-His tagged NAMPT (Homo sapiens, UniProt P43490)
Experiment: Time-Resolved Fluorescence Resonance Energy Transfer (TR-FRET) binding assay of NAMPT
Conditions: 6.8 nM NAMPT, 200 nM probe (Oregon Green 488-conjugated APO866), 1 nM Tb-anti-His antibody, 2-3 hours
Method: Determination of the utility of compounds having Formula (I) as binders to and inhibitors of NAMPT was performed using a Time-Resolved Fluorescence Resonance Energy Transfer (TR-FRET) binding assay.
Time-Resolved Fluorescence Resonance Energy Transfer (TR-FRET) Binding Assay of NAMPT
The assay was carried out in 18 uL low volume plates (Owens Corning) in reaction buffer (50 mM HEPES (NaOH), pH 7.5, 100 mM NaCl, 10 mM MgCl2, 1 mM DTT, 1% Glycerol) using 6.8 nM recombinant, human, C-terminally-His tagged NAMPT, 1 nM Tb-anti-His antibody (Invitrogen, Cat # PV5895), and 200 nM probe (Oregon Green 488-conjugated APO866; A-1251667.0). Plates were covered, and reactions were carried out for 2-3 hours. Plates were read with Envision (Laser Lantha low volume protocol) after 2 to 3 hours. Excitation was carried out at 337 nm, and the ratio of emission of Oregon Green (520 nm) to terbium (492 nm) was determined and used to calculate IC50 values of test compounds.

recombinant, human, C-terminally-His tagged NAMPT, sequence (P43490 whole entry): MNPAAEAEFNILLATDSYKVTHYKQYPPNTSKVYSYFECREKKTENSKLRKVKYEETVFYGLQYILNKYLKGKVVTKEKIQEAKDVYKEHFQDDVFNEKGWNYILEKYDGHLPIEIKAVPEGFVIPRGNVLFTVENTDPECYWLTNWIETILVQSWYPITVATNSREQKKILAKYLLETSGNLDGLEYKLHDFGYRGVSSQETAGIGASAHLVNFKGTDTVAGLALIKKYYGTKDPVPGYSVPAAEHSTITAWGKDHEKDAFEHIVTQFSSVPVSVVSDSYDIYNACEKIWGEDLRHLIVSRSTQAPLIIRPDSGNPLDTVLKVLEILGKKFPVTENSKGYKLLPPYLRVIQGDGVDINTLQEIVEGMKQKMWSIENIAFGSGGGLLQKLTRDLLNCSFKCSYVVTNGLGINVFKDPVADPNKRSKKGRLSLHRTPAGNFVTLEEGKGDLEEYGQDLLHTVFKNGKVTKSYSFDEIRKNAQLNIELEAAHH

Compound | IC50
CCn1cc(-c2ccc(NC(=O)N3CCc4ccccc4C3)cc2)cn1 [Example 40, N-[4-(1-ethyl-1H-pyrazol-4-yl)phenyl]-3,4-dihydroisoquinoline-2(1H)-carboxamide] | 645 nM
O=C(NCCCc1ccccc1)c1ccc(NC(=O)N2CCc3ccccc3C2)cc1 [Example 7, N-{4-[(3-phenylpropyl)carbamoyl]phenyl}-3,4-dihydroisoquinoline-2(1H)-carboxamide] | 20.7 nM
O=C(Cc1ccccc1)NCCc1ccc(NC(=O)N2CCc3ccccc3C2)cc1 [Example 61, N-(4-{2-[(phenylacetyl)amino]ethyl}phenyl)-3,4-dihydroisoquinoline-2(1H)-carboxamide] | 1250 nM
Nc1ccc(CCC(=O)Nc2ccc(NC(=O)N3CCc4ccccc4C3)cc2)cc1 [Example 82, N-(4-{[3-(4-aminophenyl)propanoyl]amino}phenyl)-3,4-dihydroisoquinoline-2(1H)-carboxamide] | 49 nM
O=C(Nc1ccc(NC(=O)N2CCc3ccccc3C2)cc1)C1CCOC1 (racemic) [Example 75, N-{4-[((3R)-tetrahydrofuran-3-ylcarbonyl)amino]phenyl}-3,4-dihydroisoquinoline-2(1H)-carboxamide and N-{4-[((3S)-tetrahydrofuran-3-ylcarbonyl)amino]phenyl}-3,4-dihydroisoquinoline-2(1H)-carboxamide] | 196 nM
O=C(Nc1cnn(Cc2ccccc2)c1)c1ccc(NC(=O)N2CCc3ccccc3C2)cc1 [Example 14, N-{4-[(1-benzyl-1H-pyrazol-4-yl)carbamoyl]phenyl}-3,4-dihydroisoquinoline-2(1H)-carboxamide] | 47.1 nM
O=C(Nc1ccc(/C=C/CCCc2ccccc2)cc1)N1CCc2ccccc2C1 [Example 39, N-{4-[(1E)-5-phenylpent-1-en-1-yl]phenyl}-3,4-dihydroisoquinoline-2(1H)-carboxamide] | 611 nM
O=C(NCCCc1ccccc1)c1ccc(NC(=O)N2CCc3ccncc3C2)cc1 [Example 25, N-{4-[(3-phenylpropyl)carbamoyl]phenyl}-3,4-dihydro-2,7-naphthyridine-2(1H)-carboxamide] | 597 nM
O=C(CCN1CCOCC1)Nc1ccc(NC(=O)N2CCc3ccccc3C2)cc1 [Example 95, N-(4-{[3-(morpholin-4-yl)propanoyl]amino}phenyl)-3,4-dihydroisoquinoline-2(1H)-carboxamide] | 158 nM
CC(C)CCn1cc(-c2ccc(NC(=O)N3CCc4ccccc4C3)cc2)cn1 [Example 37, N-{4-[1-(3-methylbutyl)-1H-pyrazol-4-yl]phenyl}-3,4-dihydroisoquinoline-2(1H)-carboxamide] | 298 nM
CC(C)C(=O)NCCc1ccc(NC(=O)N2CCc3ccccc3C2)cc1 [Example 62, N-{4-[2-(isobutyrylamino)ethyl]phenyl}-3,4-dihydroisoquinoline-2(1H)-carboxamide] | 1470 nM
CC(C)(C)OC(=O)N1CC=C(c2ccc(NC(=O)N3CCc4ccccc4C3)cc2)CC1 [Example 49, tert-butyl 4-{4-[(3,4-dihydroisoquinolin-2(1H)-ylcarbonyl)amino]phenyl}-3,6-dihydropyridine-1(2H)-carboxylate] | 48.7 nM
CSCCC(=O)Nc1ccc(NC(=O)N2CCc3ccccc3C2)cc1 [Example 76, N-(4-{[3-(methylthio)propanoyl]amino}phenyl)-3,4-dihydroisoquinoline-2(1H)-carboxamide] | 14.8 nM
CN1CCN(CCC(=O)Nc2ccc(NC(=O)N3CCc4ccccc4C3)cc2)CC1 [Example 96, N-(4-{[3-(4-methylpiperazin-1-yl)propanoyl]amino}phenyl)-3,4-dihydroisoquinoline-2(1H)-carboxamide] | 128 nM
O=C(CCN1CCCCC1)Nc1ccc(NC(=O)N2CCc3ccccc3C2)cc1 [Example 93, N-(4-{[3-(piperidin-1-yl)propanoyl]amino}phenyl)-3,4-dihydroisoquinoline-2(1H)-carboxamide] | 530 nM
O=C(CCCc1ccccc1)Nc1ccc(NC(=O)N2CCc3ccccc3C2)cc1 [Example 32, N-{4-[(4-phenylbutanoyl)amino]phenyl}-3,4-dihydroisoquinoline-2(1H)-carboxamide] | 12 nM
O=C(Cc1ccccn1)Nc1ccc(NC(=O)N2CCc3ccccc3C2)cc1 [Example 91, N-{4-[(pyridin-2-ylacetyl)amino]phenyl}-3,4-dihydroisoquinoline-2(1H)-carboxamide] | 16 nM
O=C(NCCCc1ccccc1)c1ccc(NC(=O)N2CCc3ccccc3C2)cn1 [Example 21, N-{6-[(3-phenylpropyl)carbamoyl]pyridin-3-yl}-3,4-dihydroisoquinoline-2(1H)-carboxamide] | 286 nM
CCCC(=O)N1CC=C(c2ccc(NC(=O)N3CCc4ccccc4C3)cc2)CC1 [Example 44, N-[4-(1-butyryl-1,2,3,6-tetrahydropyridin-4-yl)phenyl]-3,4-dihydroisoquinoline-2(1H)-carboxamide] | 13.6 nM

Compound | IC50
O=C(NCCCc1ccccc1)c1ccc(NC(=O)N2CCc3ccc(F)cc3C2)cc1 [Example 20, 7-fluoro-N-{4-[(3-phenylpropyl)carbamoyl]phenyl}-3,4-dihydroisoquinoline-2(1H)-carboxamide] | 248 nM
Cc1cc(C(=O)Nc2ccc(NC(=O)N3CCc4ccccc4C3)cc2)c(C)o1 [Example 84, N-{4-[(2,5-dimethyl-3-furoyl)amino]phenyl}-3,4-dihydroisoquinoline-2(1H)-carboxamide] | 85.8 nM
O=C(Cc1ccc(NC(=O)N2CCc3ccccc3C2)cc1)NCCCc1ccccc1 [Example 27, N-(4-{2-oxo-2-[(3-phenylpropyl)amino]ethyl}phenyl)-3,4-dihydroisoquinoline-2(1H)-carboxamide] | 1030 nM
CC(C)CCc1nc(-c2ccc(NC(=O)N3CCc4ccccc4C3)cc2)no1 [Example 58, N-{4-[5-(3-methylbutyl)-1,2,4-oxadiazol-3-yl]phenyl}-3,4-dihydroisoquinoline-2(1H)-carboxamide] | 1260 nM
CC(C)Cn1cc(-c2ccc(NC(=O)N3CCc4ccccc4C3)cc2)cn1 [Example 34, N-[4-(1-isobutyl-1H-pyrazol-4-yl)phenyl]-3,4-dihydroisoquinoline-2(1H)-carboxamide] | 38.8 nM
O=C(COCc1ccccc1)Nc1ccc(NC(=O)N2CCc3ccccc3C2)cc1 [Example 63, N-(4-{[(benzyloxy)acetyl]amino}phenyl)-3,4-dihydroisoquinoline-2(1H)-carboxamide] | 10.7 nM
CC(C)CCNC(=O)c1ccc(NC(=O)N2CCc3ccc(F)cc3C2)cc1 [Example 16, 7-fluoro-N-{4-[(3-methylbutyl)carbamoyl]phenyl}-3,4-dihydroisoquinoline-2(1H)-carboxamide] | 171 nM
COCCOCC(=O)Nc1ccc(NC(=O)N2CCc3ccccc3C2)cc1 [Example 74, N-(4-{[(2-methoxyethoxy)acetyl]amino}phenyl)-3,4-dihydroisoquinoline-2(1H)-carboxamide] | 86.2 nM
O=C(Cc1ccc(NC(=O)N2CCc3ccccc3C2)cc1)NCCc1cccs1 [Example 26, N-[4-(2-oxo-2-{[2-(2-thienyl)ethyl]amino}ethyl)phenyl]-3,4-dihydroisoquinoline-2(1H)-carboxamide] | 800 nM
O=C(NCCc1cccs1)c1ccc(NC(=O)N2CCc3ccncc3C2)cc1 [Example 30, N-(4-{[2-(2-thienyl)ethyl]carbamoyl}phenyl)-3,4-dihydro-2,7-naphthyridine-2(1H)-carboxamide] | 2110 nM
O=C(Nc1ccc(NC(=O)N2CCc3ccccc3C2)cc1)c1ccno1 [Example 90, N-{4-[(1,2-oxazol-5-ylcarbonyl)amino]phenyl}-3,4-dihydroisoquinoline-2(1H)-carboxamide] | 314 nM
O=C(NCCc1cccs1)c1ccc(NC(=O)N2CCc3ccccc3C2)cn1 [Example 22, N-(6-{[2-(2-thienyl)ethyl]carbamoyl}pyridin-3-yl)-3,4-dihydroisoquinoline-2(1H)-carboxamide] | 309 nM
CCC(C)(C)C(=O)Nc1ccc(NC(=O)N2CCc3ccccc3C2)cc1 [Example 70, N-{4-[(2,2-dimethylbutanoyl)amino]phenyl}-3,4-dihydroisoquinoline-2(1H)-carboxamide] | 109 nM
O=C(CC1CCCC1)Nc1ccc(NC(=O)N2CCc3ccccc3C2)cc1 [Example 77, N-{4-[(cyclopentylacetyl)amino]phenyl}-3,4-dihydroisoquinoline-2(1H)-carboxamide] | 5.16 nM
CCOC(=O)CCCCCNC(=O)N1CCc2ccccc2C1 [Example 60, ethyl 6-[(3,4-dihydroisoquinolin-2(1H)-ylcarbonyl)amino]hexanoate] | 1370 nM
CCCc1nc(-c2ccc(NC(=O)N3CCc4ccccc4C3)cc2)no1 [Example 56, N-[4-(5-propyl-1,2,4-oxadiazol-3-yl)phenyl]-3,4-dihydroisoquinoline-2(1H)-carboxamide] | 189 nM
O=C(NCCCc1ccccc1)c1ccc(NC(=O)N2CCc3ccccc3C2)nc1 [Example 9, N-{5-[(3-phenylpropyl)carbamoyl]pyridin-2-yl}-3,4-dihydroisoquinoline-2(1H)-carboxamide] | 29.1 nM
O=C(Nc1ccc(NC(=O)N2CCc3ccccc3C2)cc1)c1cncs1 [Example 87, N-{4-[(1,3-thiazol-5-ylcarbonyl)amino]phenyl}-3,4-dihydroisoquinoline-2(1H)-carboxamide] | 116 nM

From patent US20120122924A1, “NAMPT INHIBITORS” (ABBOTT LABORATORIES, priority 2010, published 2012)
